Results reported in patent publication US10894788B2, “Inhibitors of cyclin-dependent kinases” (Kinnate Biopharma Inc., priority 2018, dated 2021).

Molecular target: CDK12 (Homo sapiens (Human), UniProt Q9NYV4)
Test: Radiometric protein kinase assay (33PanQinase Activity Assay), Assay Condition B (thiol-free conditions)
Type: biochemical
Details: thiol-free conditions (1 mM TCEP, glutathione removed)
Method: Example 2—Assay Condition B (Thiol-Free Conditions)
The IC50 profile of compounds was determined using one protein kinase in a customized, thiol free assay. […] Prior to testing, the 1×10^−03 M stock solutions in column 2 of the master plates were subjected to a serial, semi-logarithmic dilution using 100% DMSO as a solvent. […] Column 1 and 7 were filled with 100% DMSO as controls. Subsequently, 2×10 microliter from each well of the serial diluted copy plates were aliquoted with a 96 channel pipettor into two identical sets of “compound dilution plates”. All plates were barcoded for automated identification and tracking purposes. […] All compounds were stored as powder until being solubilized in DMSO. Solubilized compounds were stored as 1×10^−02 M/100% DMSO stock solutions. Prior to the assay process, 90 microliters of H2O were added to each well of a set of compound dilution plates. To minimize potential precipitation, the H2O was added to each plate only a few minutes before the transfer of the compound solutions into the assay plates. Each plate was shaken thoroughly, resulting in compound dilution plates with a final of 10% DMSO. For each assay, 5 microliters of solution from each well of the compound dilution plates/10% DMSO were transferred into the assay plate. The final volume of the assay was 50 μl. All compounds were tested at 10 final assay concentrations in the range from 1×10^−05 M to 3×10^−10 M, in singlicate. The final DMSO concentration in the reaction cocktails was 1% in all cases. A radiometric protein kinase assay (33PanQinase® Activity Assay) was used for measuring the kinase activity of the protein kinase. All kinase assays were performed in 96-well FlashPlates™ from PerkinElmer (Boston, Mass., USA) in a 50 microliter reaction volume. The reaction cocktail was pipetted in four steps in the following order: 20 microliter of assay buffer (standard buffer)·5 microliter of ATP solution (in H2O)·5 microliter of test compound (in 10% DMSO)·20 microliter enzyme/substrate mix. […] For all experiments labeled as “Thiol-free”, all glutathione was exchanged from protein preparations so as to be removed from the assay and final buffer conditions contained no thiol-containing reagents. This was done so there would be no interference with the key cysteines in the proteins of interest.
For data analysis, the median value of the counts in column 1 (n=8) of each assay plate was defined as “low control”. This value reflects unspecific binding of radioactivity to the plate in the absence of a protein kinase but in the presence of the substrate. The median value of the counts in column 7 of each assay plate (n=8) was taken as the “high control”, i.e. full activity in the absence of any inhibitor. The difference between high and low control was taken as 100% activity. As part of the data evaluation the low control value from a particular plate was subtracted from the high control value as well as from all 80 “compound values” of the corresponding plate. The residual activity (in %) for each well of a particular plate was calculated by using the following formula: Res. Activity (%)=100×[(cpm of compound−low control)/(high control−low control)]
The residual activities for each concentration and the compound IC50 values were calculated using Quattro Workflow V3.1.1 (Quattro Research GmbH, Munich, Germany; www.quattro-research.com). […] The fitting method used was a least-squares fit. As a parameter for assay quality, the Z′-factor (Zhang et al., J. Biomol. Screen. 2: 67-73, 1999) for the low and high controls of each assay plate (n=8) was used. ProQinase's criterion for repetition of an assay plate is a Z′-factor below 0.4 (Iversen et al., J. Biomol. Screen. 3: 247-252, 2006).

Chain of CDK12 (Q9NYV4 whole entry): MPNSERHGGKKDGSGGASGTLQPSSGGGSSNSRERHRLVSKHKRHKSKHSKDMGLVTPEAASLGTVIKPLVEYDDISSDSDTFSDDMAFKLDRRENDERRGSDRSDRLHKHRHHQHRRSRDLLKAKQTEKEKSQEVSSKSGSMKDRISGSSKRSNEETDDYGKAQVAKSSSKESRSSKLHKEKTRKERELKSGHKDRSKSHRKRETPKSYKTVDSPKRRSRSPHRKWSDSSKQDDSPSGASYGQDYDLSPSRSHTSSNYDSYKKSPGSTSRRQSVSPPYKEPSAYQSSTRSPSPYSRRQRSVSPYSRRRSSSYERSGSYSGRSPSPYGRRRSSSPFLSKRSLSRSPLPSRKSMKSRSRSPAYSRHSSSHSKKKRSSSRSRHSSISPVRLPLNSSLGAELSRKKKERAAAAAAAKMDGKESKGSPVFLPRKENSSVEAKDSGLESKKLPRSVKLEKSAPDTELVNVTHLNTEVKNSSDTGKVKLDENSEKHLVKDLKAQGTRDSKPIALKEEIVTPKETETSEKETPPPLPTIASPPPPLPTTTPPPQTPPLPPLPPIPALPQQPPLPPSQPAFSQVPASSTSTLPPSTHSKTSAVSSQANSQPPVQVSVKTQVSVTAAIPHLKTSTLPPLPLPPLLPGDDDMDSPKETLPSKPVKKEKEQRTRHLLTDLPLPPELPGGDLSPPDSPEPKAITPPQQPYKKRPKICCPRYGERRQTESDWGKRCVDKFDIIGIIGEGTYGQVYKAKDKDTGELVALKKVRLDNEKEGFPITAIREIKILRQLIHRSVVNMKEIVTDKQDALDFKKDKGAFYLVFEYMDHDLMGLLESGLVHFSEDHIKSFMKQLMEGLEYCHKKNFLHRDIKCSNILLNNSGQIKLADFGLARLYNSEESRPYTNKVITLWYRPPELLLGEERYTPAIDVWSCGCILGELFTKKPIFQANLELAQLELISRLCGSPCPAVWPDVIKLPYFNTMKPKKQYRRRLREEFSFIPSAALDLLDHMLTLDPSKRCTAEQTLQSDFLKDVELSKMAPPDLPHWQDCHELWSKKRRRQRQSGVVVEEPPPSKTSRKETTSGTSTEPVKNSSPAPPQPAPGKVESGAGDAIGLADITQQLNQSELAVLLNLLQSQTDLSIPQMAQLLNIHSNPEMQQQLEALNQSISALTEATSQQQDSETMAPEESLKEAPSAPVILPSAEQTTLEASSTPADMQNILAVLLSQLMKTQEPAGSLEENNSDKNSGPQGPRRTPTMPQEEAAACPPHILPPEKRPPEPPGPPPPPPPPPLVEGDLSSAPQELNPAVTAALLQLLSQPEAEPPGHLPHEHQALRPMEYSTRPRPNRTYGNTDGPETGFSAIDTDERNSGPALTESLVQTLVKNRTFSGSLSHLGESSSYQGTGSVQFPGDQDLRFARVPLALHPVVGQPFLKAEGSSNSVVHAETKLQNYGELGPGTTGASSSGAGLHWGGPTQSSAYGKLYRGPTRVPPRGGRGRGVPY
Chain of CDK12 (O75909 whole entry partner): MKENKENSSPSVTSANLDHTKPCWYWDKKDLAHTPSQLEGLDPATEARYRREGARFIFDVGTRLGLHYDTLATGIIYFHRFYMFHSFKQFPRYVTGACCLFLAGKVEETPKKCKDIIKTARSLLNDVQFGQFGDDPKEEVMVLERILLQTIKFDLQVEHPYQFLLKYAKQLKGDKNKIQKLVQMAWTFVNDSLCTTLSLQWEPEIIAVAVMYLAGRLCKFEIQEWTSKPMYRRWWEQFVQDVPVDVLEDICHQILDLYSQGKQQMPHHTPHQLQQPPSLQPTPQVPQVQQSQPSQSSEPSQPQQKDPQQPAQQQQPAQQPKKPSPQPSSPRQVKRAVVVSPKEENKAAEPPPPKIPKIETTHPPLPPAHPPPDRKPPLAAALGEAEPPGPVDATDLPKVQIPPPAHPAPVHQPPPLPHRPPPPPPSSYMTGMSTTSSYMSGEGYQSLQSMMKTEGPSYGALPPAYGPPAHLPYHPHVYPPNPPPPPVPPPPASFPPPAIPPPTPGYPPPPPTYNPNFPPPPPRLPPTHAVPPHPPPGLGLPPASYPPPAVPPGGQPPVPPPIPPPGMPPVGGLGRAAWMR

IC50 [nM]	SMILES
100 to 1000	C=CC(=O)Nc1ccc(C(=O)N2CC[C@@H](Nc3ncc(F)c(OC)n3)C2)cc1 [Example 59, (R)—N-(4-(3-((5-fluoro-4-methoxypyrimidin-2-yl)amino)pyrrolidine-1-carbonyl)phenyl)acrylamide]
100 to 1000	C=CC(=O)Nc1ccc(C(=O)N2CC[C@@H](Nc3ncc(C)c(OC4CC4)n3)C2)cc1 [Example 81, (R)—N-(4-(3-((4-cyclopropoxy-5-methylpyrimidin-2-yl)amino)pyrrolidine-1-carbonyl)phenyl)acrylamide]
< 100	C=CC(=O)Nc1nc(C(=O)N2CC[C@@H](Nc3ncc(Cl)c(OC)n3)C2)cs1 [Example 7, (R)-N-(4-(3-((5-chloro-4-methoxypyrimidin-2-yl)amino)pyrrolidine-1-carbonyl)thiazol-2-yl)acrylamide]
30000 to 100000	C=CC(=O)Nc1ccc(C(=O)N2CCC[C@@H](Nc3nccc(-c4ccnn4C)n3)C2)cc1 [Example 35, (R)—N-(4-(3-((4-(1-methyl-1H-pyrazol-5-yl)pyrimidin-2-yl)amino)piperidine-1-carbonyl)phenyl)acrylamide]
100 to 1000	C=CC(=O)Nc1ccc(C(=O)N2CC[C@@H](Nc3cnc(C(F)(F)F)cn3)C2)cc1 [Example 60, (R)—N-(4-(3-((5-(trifluoromethyl)pyrazin-2-yl)amino)pyrrolidine-1-carbonyl)phenyl)acrylamide]
100 to 1000	C=CC(=O)Nc1ccc(C(=O)N2CC[C@@H](Nc3ncc(Cl)cn3)C2)cc1-c1cnn(C)c1 [Example 69, (R)—N-(4-(3-((5-chloropyrimidin-2-yl)amino)pyrrolidine-1-carbonyl)-2-(1-methyl-1H-pyrazol-4-yl)phenyl)acrylamide]
10000 to 30000	C=CC(=O)Nc1ccc(C(=O)N2CCC[C@@H](Nc3cnc(Cl)cn3)C2)cc1 [Example 38, (R)—N-(4-(3-((5-chloropyrazin-2-yl)amino)piperidine-1-carbonyl)phenyl)acrylamide]
100 to 1000	C=CC(=O)Nc1ccc(C(=O)N2CC[C@@H](Nc3ncc(Cl)c(OC)n3)C2)cc1-c1cnn(C)c1 [Example 82, (R)—N-(4-(3-((5-chloro-4-methoxypyrimidin-2-yl)amino)pyrrolidine-1-carbonyl)-2-(1-methyl-1H-pyrazol-4-yl)phenyl)acrylamide]
100 to 1000	C=CC(=O)Nc1ccc(C(=O)N2CC[C@@H](Nc3ncc(F)c(OC4CC4)n3)C2)cc1 [Example 23, (R)—N-(4-(3-((4-cyclopropoxy-5-fluoropyrimidin-2-yl)amino)pyrrolidine-1-carbonyl)phenyl)acrylamide]
100 to 1000	C=CC(=O)N1CCOc2cc(C(=O)N3CC[C@@H](Nc4ncc(Cl)cn4)C3)ccc21 [Example 51, (R)-1-(7-(3-((5-chloropyrimidin-2-yl)amino)pyrrolidine-1-carbonyl)-2H-benzo[b][1,4]oxazin-4(3H)-yl)prop-2-en-1-one]
< 100	C=CC(=O)N1CCCc2cc(C(=O)N3CC[C@@H](Nc4ncc(Cl)c(OC)n4)C3)ccc21 [Example 65, (R)-1-(6-(3-((5-chloro-4-methoxypyrimidin-2-yl)amino)pyrrolidine-1-carbonyl)-3,4-dihydroquinolin-1(2H)-yl)prop-2-en-1-one]
< 100	C=CC(=O)Nc1ccc(C(=O)N2CC[C@@H](Nc3ncc(Cl)c(OC)n3)C2)cc1OC [Example 1, (R)-N-(4-(3-((5-chloro-4-methoxypyrimidin-2-yl)amino)pyrrolidine-1-carbonyl)-2-methoxyphenyl)acrylamide]
1000 to 10000	CCC(=O)Nc1ccc(C(=O)N2CC[C@@H](Nc3ncc(F)c(OC4CC4)n3)C2)cc1 [Example 13, (R)—N-(4-(3-((4-cyclopropoxy-5-fluoropyrimidin-2-yl)amino)pyrrolidine-1-carbonyl)phenyl)propionamide]
1000 to 10000	CCC(=O)Nc1ccc(C(=O)N2CC[C@@H](Nc3ncc(C)c(OC4CC4)n3)C2)cc1 [Example 16, (R)—N-(4-(3-((4-cyclopropoxy-5-methylpyrimidin-2-yl)amino)pyrrolidine-1-carbonyl)phenyl)propionamide]
30000 to 100000	CCC(=O)Nc1ccc(C(=O)N2CCC[C@@H](Nc3nccc(-c4cn[nH]c4)n3)C2)cc1 [Example 41, (R)—N-(4-(3-((4-(1H-pyrazol-4-yl)pyrimidin-2-yl)amino)piperidine-1-carbonyl)phenyl)propionamide]
100 to 1000	CCC(=O)Nc1ccc(C(=O)N2CC[C@@H](Nc3ncc(Cl)c(OC4CC4)n3)C2)cc1 [Example 15, (R)—N-(4-(3-((5-chloro-4-cyclopropoxypyrimidin-2-yl)amino)pyrrolidine-1-carbonyl)phenyl)propionamide]
< 100	C=CC(=O)Nc1ccc(C(=O)N2CC[C@@H](Nc3ncc(Cl)c(OCC(F)(F)F)n3)C2)cc1 [Example 24, (R)—N-(4-(3-((5-chloro-4-(2,2,2-trifluoroethoxy)pyrimidin-2-yl)amino)pyrrolidine-1-carbonyl)phenyl)acrylamide]
100 to 1000	C=CC(=O)Nc1ccc(C(=O)N2CC[C@@H](Nc3ncc(Cl)cn3)C2)c(C)c1 [Example 32, (R)—N-(4-(3-((5-chloropyrimidin-2-yl)amino)pyrrolidine-1-carbonyl)-3-methylphenyl)acrylamide]
100 to 1000	C=CC(=O)Nc1ccc(C(=O)N2CC[C@@H](Nc3ncc(C)cn3)C2)cc1 [Example 57, (R)—N-(4-(3-((5-methylpyrimidin-2-yl)amino)pyrrolidine-1-carbonyl)phenyl)acrylamide]
10000 to 30000	C=CC(=O)Nc1ccc(C(=O)N2CCC[C@@H](Nc3nccc(OC4CCCC4)n3)C2)cc1 [Example 40, (R)—N-(4-(3-((4-(cyclopentyloxy)pyrimidin-2-yl)amino)piperidine-1-carbonyl)phenyl)acrylamide]
100 to 1000	C=CC(=O)Nc1ccc(C(=O)N2CC[C@@H](Nc3ncc(F)c(OC4CC4)n3)C2)cc1 [Example 71, (R)—N-(4-(3-((4-cyclopropoxy-5-fluoropyrimidin-2-yl)amino)pyrrolidine-1-carbonyl)phenyl)acrylamide]
100 to 1000	C=CC(=O)Nc1ncc(C(=O)N2CC[C@@H](Nc3ncc(Cl)c(OC)n3)C2)s1 [Example 73, (R)—N-(5-(3-((5-chloro-4-methoxypyrimidin-2-yl)amino)pyrrolidine-1-carbonyl)thiazol-2-yl)acrylamide]
< 100	C=CC(=O)Nc1ccc(C(=O)N2CC[C@@H](Nc3ncc(Cl)c(OC4CC4)n3)C2)cc1 [Example 21, (R)—N-(4-(3-((5-chloro-4-cyclopropoxypyrimidin-2-yl)amino)pyrrolidine-1-carbonyl)phenyl)acrylamide]
100 to 1000	C=CC(=O)N1CCOc2cc(C(=O)N3CC[C@@H](Nc4ncc(Cl)cn4)C3)ccc21 [Example 34, (R)-1-(7-(3-((5-chloropyrimidin-2-yl)amino)pyrrolidine-1-carbonyl)-2H-benzo[b][1,4]oxazin-4(3H)-yl)prop-2-en-1-one]

SMILES	IC50 [nM]
C=CC(=O)N1CCc2cc(C(=O)N3CC[C@@H](Nc4ncc(Cl)c(OC)n4)C3)ccc21 [Example 27, (R)-1-(5-(3-((5-chloro-4-methoxypyrimidin-2-yl)amino)pyrrolidine-1-carbonyl)indolin-1-yl)prop-2-en-1-one]	< 100
C=CC(=O)Nc1c(C)cc(C(=O)N2CC[C@@H](Nc3ncc(Cl)cn3)C2)cc1C [Example 33, (R)—N-(4-(3-((5-chloropyrimidin-2-yl)amino)pyrrolidine-1-carbonyl)-2,6-dimethylphenyl)acrylamide]	1000 to 10000

Molecular target: CDK12 wt/CycK (Homo sapiens (Human), UniProt Q9NYV4)
Test: Radiometric protein kinase assay (33PanQinase Activity Assay), Assay Condition A (thiol containing conditions)
Type: biochemical
Details: thiol containing conditions (1.2 mM DTT), ATP 0.3 μM; read-out: CDK12 IC50 Condition A
How it was run: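 Recombinant human kinase incubated with [33P]ATP, substrate and compound (10 concentrations, 1×10^−04M to 3×10^−09M, singlicate, 1% DMSO) under thiol-containing buffer conditions, 60 min at 30 °C. 33Pi incorporation counted by scintillation; residual activity normalised to no-inhibitor and no-kinase controls, IC50 derived.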

Chain of CDK12 wt/CycK (Q9NYV4 whole entry): as the sequence (Q9NYV4 whole entry) above
Chain of CDK12 wt/CycK (O75909 whole entry partner): as the sequence (O75909 whole entry partner) above

IC50 [nM]	SMILES
1000 to 10000	C=CC(=O)Nc1ccc(C(=O)N2CC[C@@H](Nc3ncc(F)c(OC)n3)C2)cc1 [Example 59, (R)—N-(4-(3-((5-fluoro-4-methoxypyrimidin-2-yl)amino)pyrrolidine-1-carbonyl)phenyl)acrylamide]
